SMILES strings stand for the structures.

For the experiment, the target named is T1, human Dopamine D1 receptor (Homo sapiens, UniProt P21728).
T1 construct: expressed in transfected cells; host or cells: Ltk- cells (mouse fibroblasts), membrane preparation
T1 sequence (P21728 whole entry): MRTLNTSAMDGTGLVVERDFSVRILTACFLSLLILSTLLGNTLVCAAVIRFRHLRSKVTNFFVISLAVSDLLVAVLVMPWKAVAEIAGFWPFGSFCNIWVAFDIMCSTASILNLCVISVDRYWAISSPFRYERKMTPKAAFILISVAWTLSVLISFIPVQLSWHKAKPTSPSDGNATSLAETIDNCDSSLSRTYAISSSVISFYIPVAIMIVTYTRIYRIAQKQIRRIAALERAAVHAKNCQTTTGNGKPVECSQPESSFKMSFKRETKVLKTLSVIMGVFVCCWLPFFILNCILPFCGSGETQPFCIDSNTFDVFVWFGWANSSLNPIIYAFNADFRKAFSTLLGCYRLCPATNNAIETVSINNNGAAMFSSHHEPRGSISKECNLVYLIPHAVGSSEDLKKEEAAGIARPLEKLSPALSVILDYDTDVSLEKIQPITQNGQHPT
As to the kind of experiment: radioligand binding competition assay, displacement of [3H]SCH 23390 from D1 receptor (Ltk-cells membranes).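 Further: under 5 nM class also requires D2 to D1 selectivity above 500.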 As to conditions: class combines Ki (D1) and, for A and B, D2:D1 selectivity (Ki D2 / Ki D1); read-out: D1 binding and D2:D1 Selectivity. The text has this:
Biological Activity: Compounds from this disclosure have been biologically characterized by their ability to displace a known D1-like selective ligand, [3H]SCH 23390 from the human Dopamine D1 receptor, and a known D2-like selective ligand, [3H] Methylspiperone, from the human Dopamine D2 and D4 receptors.
Affinity values (Ki) of compounds at human dopamine receptors were ascertained using radioligand binding competition assays. Cells expressing D1 (Ltk-cells), D2 (long variant, Ltk-cells), D4 (CHO cells) and D5 (GH4C1 cells) receptors were lysed in hypotonic buffer for membrane preparation. Membranes were incubated with various concentrations of test compound and 1 nM [3H] SCH 23390 (D1 and D5) and 0.2 nM [3H] Methylspiperone for (D2 and D4) assays. Non-specific binding was defined as binding in the presence of 10 micromolar of SCH 23390 for D1 and D5 assays and 10 micromolar butaclamol for D2 and D4 assays. Following incubation to equilibrium (1 hour at room temperature), bound radioligand was separated from free by rapid filtration. Bound radioactivity on the dried filters was quantified by liquid scintillation counting.
Selectivity is determined by dividing Ki for D2, D4 or D5 receptors by Ki for D1 receptor.
In the case of `CCOc1ccc(CN2CCN(c3ccc(/C=C/C(=N)Nc4ccc(Cl)cc4)c(Cl)c3)CC2)cc1` [Example 62], the Ki fell in the range of 10 to 50 nM. As for `N=C(/C=C/c1ccc(-c2ccsc2)cc1)Nc1ccc(Cl)cc1` [Example 64], the Ki fell in the range of 10 to 50 nM. Turning to `COc1ccc(/C=C/C(=N)Nc2ccc(Cl)cc2)cc1Cl` [Example 65], the Ki lay within 10 to 50 nM. For the molecule `N=C(Nc1ccc(Cl)cc1)c1ccc2cccc(O)c2n1` [Example 66], the Ki is 10 to 50 nM. Take `N=C(/C=C/c1ccc(Cl)s1)Nc1ccc(Cl)cc1` [Example 67]: the Ki is 10 to 50 nM. As for `N=C(/C=C/c1ccc(-c2ccc(CN3CCNCC3)cc2)cc1)Nc1ccc(Cl)cc1` [Example 68], the Ki lay within 10 to 50 nM. Take `COc1ccc(/C=C/C(=N)Nc2ccc(Cl)cc2)cc1OC` [Example 69]: the Ki is 10 to 50 nM.

As for `COc1ccc(/C=C/C(=N)Nc2ccc(Cl)cc2)cc1` [Example 70], the Ki lay within 10 to 50 nM. On to `N=C(Nc1ccc(Cl)cc1)c1ccc2cc(N3CCNCC3)ccc2c1` [Example 71], for which the Ki was 10 to 50 nM.

`N=C(/C=C/c1ccc2c(c1)OCO2)Nc1ccc(Cl)cc1` [Example 72]: the Ki lay in the range of 10 to 50 nM.

On to `N=C(/C=C/c1ccccc1Cl)Nc1ccc(Cl)cc1` [Example 73], for which the Ki lay within 10 to 50 nM.

Turning to `N=C(/C=C/c1ccc(N2CCN(C3CCCC(C(F)(F)F)C3)CC2)cc1Cl)Nc1ccc(Cl)cc1` (stereo not drawn) [Example 74], the Ki was 10 to 50 nM. For `CC(C)(C)OC(=O)N1CCN(Cc2ccc(-c3ccc(/C=C/C(=N)Nc4ccc(Cl)cc4)cc3)cc2)CC1` [Example 75], the Ki fell in the range of 50 to 10000 nM. As for `N=C(/C=C/c1ccccc1Br)Nc1ccc(Cl)cc1` [Example 76], the Ki was 50 to 10000 nM. Consider `CC(C)N1CCN(c2ccc(/C=C/C(=N)Nc3ccc(Cl)cc3)c(Cl)c2)CC1` [Example 77], for which the Ki is 50 to 10000 nM. As to `N=C(/C=C/c1ccc2ccccc2c1)Nc1ccc(Cl)cc1` [Example 78], the Ki was 50 to 10000 nM. As to `N=C(Nc1ccc(Cl)cc1)c1ccc2nc(N3CCNCC3)ccc2c1` [Example 79], the Ki was in the range of 50 to 10000 nM. For `N=C(/C=C/c1ccc(Cl)cc1)Nc1ccc(Cl)cc1` [Example 80], the Ki fell in the range of 50 to 10000 nM. On to `COc1ccc(/C=C\C(=N)Nc2ccc(Cl)cc2)cc1` [Example 81], for which the Ki lay in the range of 50 to 10000 nM. Take `COc1ccc(/C=C/C(=N)Nc2cccc([N+](=O)[O-])c2)cc1` [Example 82]: the Ki is 50 to 10000 nM. Consider `CCC(C)CN1CCN(c2ccc(/C=C/C(=N)Nc3ccc(Cl)cc3)c(Cl)c2)CC1` (stereo not drawn) [Example 83], for which the Ki was 50 to 10000 nM.

Turning to `N=C(/C=C/c1ccc(N2CCCCC2)cc1)Nc1ccc(Cl)cc1` [Example 84], the Ki is 50 to 10000 nM. Consider `COc1ccc(/C=C\C(=N)Nc2ccc(Cl)cc2)c(F)c1` [Example 85], for which the Ki was in the range of 50 to 10000 nM. `N=C(/C=C/c1ccc(N2CCOCC2)cc1)Nc1ccc(Cl)cc1` [Example 86]: the Ki lay in the range of 50 to 10000 nM. In the case of `N=C(/C=C/c1ccc(-c2ccc(CN3CCN(Cc4ccccc4)CC3)cc2)cc1)Nc1ccc(Cl)cc1` [Example 87], the Ki fell in the range of 50 to 10000 nM.

With `N=C(/C=C/c1ccc(-n2ccnc2)cc1)Nc1ccc(Cl)cc1` [Example 88], the Ki was 50 to 10000 nM. As to `N=C(Nc1ccc(Cl)cc1)c1ccc2[nH]ccc2c1` [Example 89], the Ki lay in the range of 50 to 10000 nM. With `N=C(/C=C/c1ccc(N2CCCC2)cc1)Nc1ccc(Cl)cc1` [Example 90], the Ki fell in the range of 50 to 10000 nM. In the case of `COc1ccc(/C=C/C(=N)Nc2cccc(C#N)c2)cc1` [Example 91] it was 50 to 10000 nM; in that of `N=C(/C=C/c1ccc(O)c(Cl)c1)Nc1ccc(Cl)cc1` [Example 92], 50 to 10000 nM. `N=C(/C=C/c1ccc(N2CCN(c3cccc(Cl)c3)CC2)cc1)Nc1ccc(Cl)cc1` [Example 93]: the Ki was 50 to 10000 nM. `COc1cccc2ccc(C(=N)Nc3ccc(Cl)cc3)nc12` [Example 94, N-(4-chloro-phenyl)-8-methoxy-quinoline-2-carboxamidine]: the Ki fell in the range of 50 to 10000 nM. As to `Cc1ccc(C)n1-c1ccc(/C=C/C(=N)Nc2ccc(Cl)cc2)cc1` [Example 95], the Ki lay in the range of 50 to 10000 nM. For `COc1ccc(NC(=N)/C=C/c2ccc(N3CCNCC3)cc2Cl)cc1Cl` [Example 96], the Ki was in the range of 50 to 10000 nM.

As to `N=C(Nc1ccc(Cl)cc1)c1ccc2cc(N3CCN(C4CCCCC4)CC3)ccc2c1` [Example 97], the Ki lay in the range of 50 to 10000 nM. For `N=C(/C=C/c1ccc(N)cc1)Nc1ccc(Cl)cc1` [Example 98], the Ki lay within 50 to 10000 nM. In the case of `N=C(/C=C/c1ccc(-c2cc(F)cc(F)c2)cc1)Nc1ccc(Cl)cc1` [Example 99] it was 50 to 10000 nM. In the case of `CCn1c2ccccc2c2cc(/C=C/C(=N)Nc3ccc(Cl)cc3)ccc21` [Example 100] it was 50 to 10000 nM; in that of `CN(C)c1ccc(/C=C/C(=N)Nc2ccc(Cl)cc2)c2ccccc12` [Example 101], 50 to 10000 nM. For `N=C(/C=C/c1ccc(Cl)c(Cl)c1)Nc1ccc(Cl)cc1` [Example 102], the Ki is 50 to 10000 nM. As to `N=C(/C=C/c1c(Cl)cccc1Cl)Nc1ccc(Cl)cc1` [Example 103], the Ki lay within 50 to 10000 nM. In the case of `N=C(/C=C/c1ccc(N2CCN(c3ccccc3)CC2)cc1)Nc1ccc(Cl)cc1` [Example 104] it was 50 to 10000 nM; in that of `N=C(/C=C/c1ccc2c(c1)OCCO2)Nc1ccc(Cl)cc1` [Example 105], 50 to 10000 nM.

For `N=C(Nc1ccc(Cl)cc1)c1ccc2cc(O)ccc2c1` [Example 106, N-(4-chloro-phenyl)-6-hydroxy-naphthalene-2-carboxamidine], the Ki lay within 50 to 10000 nM.

As for `COc1ccc(-c2ccc(/C=C/C(=N)Nc3ccc(Cl)cc3)cc2)cc1OC` [Example 107], the Ki lay within 50 to 10000 nM. For `N=C(/C=C/c1ccc(CN2CCCC2)cc1)Nc1ccc(Cl)cc1` [Example 108], the Ki lay in the range of 50 to 10000 nM.

For `N=C(/C=C/c1cc(Cl)cc(Cl)c1)Nc1ccc(Cl)cc1` [Example 109], the Ki fell in the range of 50 to 10000 nM. With `N=C(/C=C/c1ccc(CNCc2ccccc2)cc1)Nc1ccc(Cl)cc1` [Example 110], the Ki is 50 to 10000 nM. `N=C(/C=C/c1ccc(-c2ccc(CO)cc2)cc1)Nc1ccc(Cl)cc1` [Example 111]: the Ki is 50 to 10000 nM. Turning to `CN1CCN(c2ccc3cc(C(=N)Nc4ccc(Cl)cc4)ccc3c2)CC1` [Example 112], the Ki was 50 to 10000 nM. With `COc1ccccc1C1CCN(c2ccc(/C=C/C(=N)Nc3ccc(Cl)cc3)cc2)CC1` [Example 113], the Ki is 50 to 10000 nM. `N=C(/C=C/c1ccccc1)Nc1ccc(Cl)cc1` [Example 114]: the Ki fell in the range of 50 to 10000 nM. On to `CCCCN(CCCC)c1ccc(/C=C/C(=N)Nc2ccc(Cl)cc2)cc1` [Example 115], for which the Ki was in the range of 50 to 10000 nM.

Consider `N=C(/C=C/c1ccc(CN2CCOCC2)cc1)Nc1ccc(Cl)cc1` [Example 116], for which the Ki lay within 50 to 10000 nM. For `COc1ccc(NC(=N)/C=C/c2ccccc2)cc1` [Example 117], the Ki was 50 to 10000 nM. On to `N=C(Nc1ccc(Cl)cc1)c1ccc(-c2ccccc2)cc1` [Example 118], for which the Ki fell in the range of 50 to 10000 nM. For the molecule `COc1ccc2cc(C(=N)Nc3ccc(Cl)cc3F)ccc2c1` [Example 119], the Ki was in the range of 50 to 10000 nM. The same measure for `N=C(/C=C/c1ccc(-c2cccc(C(=O)O)c2)cc1)Nc1ccc(Cl)cc1` [Example 120]: 50 to 10000 nM; for `COc1ccc(NC(=N)/C=C/c2ccc(Cc3cccnc3)cc2)cc1` [Example 121]: 50 to 10000 nM; for `N=C(/C=C/c1ccc(-c2ccc(C(F)(F)F)cc2)cc1)Nc1ccc(Cl)cc1` [Example 122]: 50 to 10000 nM.

As to `N=C(/C=C/c1ccc(N2CCNCC2)cc1Cl)Nc1ccc(O)c(Cl)c1` [Example 123], the Ki is 50 to 10000 nM. The same measure for `N=C(/C=C/c1ccc(Cc2cccnc2)cc1)Nc1ccc(OC(F)(F)F)cc1` [Example 124]: 50 to 10000 nM; for `CO/N=C(/C)c1ccc(-c2ccc(/C=C/C(=N)Nc3ccc(Cl)cc3)cc2)cc1` [Example 125, N-(4-chloro-phenyl)-3-[4′-(1-methoxyimino-ethyl)-biphenyl-4-yl]-acrylamidine]: 50 to 10000 nM. Regarding `N=C(/C=C/c1ccc(N2CCCC3CCCCC32)cc1)Nc1ccc(Cl)cc1` (stereo not drawn) [Example 126], the Ki lay in the range of 50 to 10000 nM. With `N=C(Nc1ccc(Cl)cc1)c1ccc2ccccc2n1` [Example 127], the Ki is 50 to 10000 nM. In the case of `N=C(/C=C/c1ccc(Cc2cccnc2)cc1)Nc1ccc(Cl)c(O)c1` [Example 128] it was 50 to 10000 nM; in that of `COc1ccc(/C=C/C(=N)Nc2ccc(OC)c(OC)c2)cc1` [Example 129], 50 to 10000 nM; in that of `COc1ccc(/C=C/C(=N)Nc2ccc(C)c([N+](=O)[O-])c2)cc1` [Example 130], 50 to 10000 nM. In the case of `CC(C)(C)c1ccc(-c2ccc(/C=C/C(=N)Nc3ccc(Cl)cc3)cc2)cc1` [Example 131] it was 50 to 10000 nM; in that of `N=C(Cc1ccc2ccccc2c1)Nc1ccc(Cl)cc1` [Example 132], 50 to 10000 nM. As for `COc1ccc(/C=C/C(=N)Nc2ccc(C(C)(C)C)cc2)cc1` [Example 133], the Ki was 50 to 10000 nM. On to `N=C(CCc1ccc(Cc2c[nH]cn2)cc1)Nc1ccc(Cl)cc1` [Example 134], for which the Ki lay within 50 to 10000 nM.

For the origin of these results see patent US7423149B2, “Substituted n-aryl amidines as selective D1 dopamine receptor antagonists for the treatment of obesity and CNS disorders” (Schering Corporation, priority 2003, dated 2008).
